Like-named read-outs stand apart in the source and are kept apart here.
What was measured:
[1] = Mouse Plasma Conc.; assay type: in vivo; conditions: given as 'Up to'
[2] = In Vitro Metabolism in Human Liver Microsomes (predicted EH); assay type: in vitro ADME
Description: [formula] [formula] [formula] [formula] • Cbrain=concentration of compound in brain parenchyma (ng/g) • Cbrain homogenate=concentration of compound in brain homogenate (ng/g) • Cbrain vasculature=concentration of compound in brain vasculature (ng/g) • CPlasma=concentration of compound in plasma (ng/mL) • VP=brain plasma volume (26 μL/g for male Swiss Outbred mice) • B:P=brain-to-plasma ratio • Papp=apparent permeability coefficient of compound permeating the blood-brain barrier • ∫0^tcplasmadt=concentration of compound in plasma from time zero to 5 min post-dose (equivalent to the 5 min post-dose plasma concentration, assuming no back diffusion from brain to plasma within this time period) • A=surface area of capillaries forming the blood-brain barrier (240 cm^2/g brain weight for mouse) Assay 7 In Vitro Metabolism in Human Liver Microsomes
The solubility of test compounds and their recovery from the incubation media were confirmed prior to the metabolic assay. Metabolic stability was performed by incubating test compounds individually (1 μM) at 37° C. with human liver microsomes. The metabolic reaction was initiated by the addition of a NADPH-regenerating system (i.e. NADPH is the cofactor required for CYP450-mediated metabolism) and quenched at various time points over the incubation period by the addition of acetonitrile. Additional samples with dual co-factors, i.e. NADPH and UDPGA (the co-factor for glucuronidation), were also included in the incubation for the qualitative assessment of the potential for glucuronide formation. The relative loss of parent compound and formation of metabolic products was monitored by LC/MS using a Waters/Micromass LCT mass spectrometer.
Test compound concentration versus time data were fitted to an exponential decay function to determine the first-order rate constant for substrate depletion. In cases where clear deviation from first-order kinetics was evident, only the initial linear portion of the profile was utilised to determine the degradation rate constant (k). Each substrate depletion rate constant was then used to calculate: [1] degradation half-life, [2] an in vitro intrinsic clearance value (CLint,in vitro); [3] a predicted in vivo intrinsic clearance value (CLint); and [4] a predicted in vivo hepatic extraction ratio (EH).
[formula] • The following scaling parameters were assumed for estimating metabolic stability parameters:
Predictions of In Vivo Hepatic Clearance and Hepatic Extraction Ratios:
The microsome-predicted hepatic extraction ratios (EH) obtained based on the relative rate of degradation of the test compound in vitro, lead to test compounds being classified as low (<0.3), intermediate (0.3-0.7), high (0.7-0.95) or very high (>0.95) extraction compounds. The assumptions underlying this classification are stated below.
The use of hepatic microsomes in the prediction of the in vivo hepatic clearance and extraction ratio is based on a number of assumptions (Obach, 1999; Drug Metab. Dispos. 27: 1350-1359):
1) Hepatic (microsomal) metabolic clearance is the major clearance mechanism for compounds in vivo;
2) NADPH-dependent oxidative metabolism predominates over other metabolic routes (i.e. direct conjugative metabolism, reduction, hydrolysis, etc.); and,
3) Rates of metabolism and enzyme activities in vitro are truly reflective of those that exist in vivo.
Calculations of intrinsic clearance are based on the “in vitro […] method” (Obach, 1999), which has two further inherent assumptions:
1) The substrate concentration employed is well below the apparent KM for substrate turnover; and,
2) There is no significant product inhibition, nor is there any mechanism based inactivation of enzyme.
Data should be considered within these terms of reference.

[3] = target: CYP3A4 (Homo sapiens, UniProt P08684); experiment: CYP450 inhibition, specific substrate approach in human liver microsomes: CYP3A4; assay type: in vitro ADME; design: using a specific substrate approach in human liver microsomes; from tissue; host or cells: human liver microsomes
Description: CYP450 Isoform Inhibition Using a Specific Substrate Approach
The present study is a “Tier 2” screen to assess potential enzyme inhibition at a test compound concentration of 20 μM using a specific substrate approach in human liver microsomes.
The substrate specific enzyme inhibition study relies on the formation of a metabolite that is mediated by a specific CYP450 isoform using human liver microsomes. In the current study, the following reactions were monitored to assess interactions with specific CYP450 isoforms. A known inhibitor of each isoform was included in each assay as a positive control. The following IC50 values have been reported in the literature using equivalent assay conditions for each CYP450 isoform:
The reaction was initiated by the addition of an NADPH-regenerating system and was quenched by the addition of acetonitrile prior to determining the concentration (and apparent rate of formation) of the specific metabolite by LC/MS.
The IC50 was deemed to be the concentration at which there was a 50% reduction in the amount of metabolite formed, relative to the maximal extent of formation.

[4] = midazolam, read-out: CYP3A4-Midazolam IC50
[5] = testosterone, read-out: CYP3A4-Testosterone IC50

Sequence of CYP3A4 (P08684 2-503): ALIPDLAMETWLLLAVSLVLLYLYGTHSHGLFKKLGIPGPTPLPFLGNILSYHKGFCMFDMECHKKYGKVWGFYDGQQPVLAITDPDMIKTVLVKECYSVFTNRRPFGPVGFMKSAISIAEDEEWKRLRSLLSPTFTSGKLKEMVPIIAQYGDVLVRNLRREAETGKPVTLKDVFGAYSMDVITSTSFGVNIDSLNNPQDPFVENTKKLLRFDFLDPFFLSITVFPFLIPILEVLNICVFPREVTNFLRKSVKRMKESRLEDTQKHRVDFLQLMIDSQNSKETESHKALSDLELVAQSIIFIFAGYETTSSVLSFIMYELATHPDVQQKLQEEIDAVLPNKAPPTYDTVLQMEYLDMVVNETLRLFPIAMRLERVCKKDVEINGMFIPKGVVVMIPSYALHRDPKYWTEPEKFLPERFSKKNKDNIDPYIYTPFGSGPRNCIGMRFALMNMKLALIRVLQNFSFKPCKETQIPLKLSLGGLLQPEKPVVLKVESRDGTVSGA

Compound	Mouse Plasma Conc. [1]	Metabolism (Predicted EH), Microsomes: Human [2]	IC50 ([3]; substrate not stated, read-out: CYP3A4 IC50)	IC50 [3, 4]	IC50 [3, 5]
CNCc1nc2c(O)c(Cl)cc(Cl)c2c(=O)n1C [Compound F4161]	≤ 510.4 ng/mL	Human <0.2			
CN(C)Cc1nc2c(O)c(Cl)cc(Cl)c2c(=O)n1CC1CC1 [Compound F4267]	≤ 1166.6 ng/mL	Human <0.31	> 30 µM		
CCn1c(CN(C)C)nc2c(O)c(Cl)cc(Cl)c2c1=O.Cl [Compound F4268]	≤ 975.9 ng/mL	Human <0.2		~20 µM	> 20 µM
CN(C)Cc1nc2c(O)c(Cl)cc(Cl)c2c(=O)n1C [Compound F4269, 5,7-Dichloro-2-(dimethylamino)methyl-8-hydroxy-3-methylquinazolin-4(3H)-one]	≤ 492.1 ng/mL	Human <0.2		> 30 µM	> 30 µM
CCN(CC)Cc1nc2c(O)c(Cl)cc(Cl)c2c(=O)n1CC1CC1 [Compound F4385]	≤ 9074 ng/mL	Human <0.2		21.5 µM	> 30 µM
C#CCN(C)Cc1nc2c(O)c(Cl)cc(Cl)c2c(=O)n1CC1CC1 [Compound F4387]	≤ 942.7 ng/mL	0.75			
Br.CCn1c(CNC)nc2c(O)c(Cl)cc(Cl)c2c1=O [Compound F4486]	≤ 1115 ng/mL				
CCNCc1nc2c(O)c(Cl)cc(Cl)c2c(=O)n1CC [Compound F4495]	≤ 8935 ng/mL	Human <0.2		> 30 µM	> 30 µM
Br.CCNCc1nc2c(O)c(Cl)cc(Cl)c2c(=O)n1C [Compound F4496]	≤ 3330.8 ng/mL	Human <0.2		4.4 µM	8.6 µM

Source: patent US9145375B2, “Quinazolinone compounds” (PRANA BIOTECHNOLOGY LIMITED, priority 2008, dated 2015)
